Experiments:
[1] = system: B16 mouse melanoma cells; assay: MTT / CV cell viability test; assay type: cell-based; conditions: B16 cells, different concentrations, 24 h; cell number also reduced by CV
Experimental: (§1) Rat glioma cell line C6 was a kind gift from Dr. Pedro Tranque (Universidad de Castilla-La Mancha, Albacete, Spain), murine melanoma B16 cell line was a kind gift from Dr. Sinisa Radulovic (Institute for Oncology and Radiology of Serbia, Belgrade, Serbia) while mouse fibrosarcoma L929 was obtained from the European Collection of Animal Cell Cultures (Salisbury, UK). Cells were grown in HEPES-buffered RPM, 1640 medium supplemented with 5% FCS, 2 mM glutamine, 0.01% sodium pyruvate, 5×10^−5 M 2-mercaptoethanol and antibiotics (culture medium) at 37° C. in a humidified atmosphere with 5% CO2. After conventional trypsinization the cells were seeded at a concentration of 10^4 cells/well in a 96-well plate, of 2×10^5 cells/well in a 6-well plate or at 3×10^4 cells/well in a 4-well chamber slide, cultivated overnight, and then exposed to the test compound.
(§2) The cells were seeded in flat-bottom 96-well plates (10^4 cells/well) in a final volume of 200 μl of culture medium, incubated overnight, then treated with different concentrations of the test compound. After 24 h incubation, cell viability was assessed using 3-4,5-dimethylthiazol-2-yl)-2,5-diphenyltetrazolium bromide (MTT) test, based on the mitochondrial-dependent reduction of MTT to formazan, or by crystal violet (CV) staining of adherent cells, as previously described (Mijatovic et al CMLS 2004). The results are presented as % of control values obtained in untreated cultures. The rate of cell proliferation was also determined using flow cytometric analysis of cells labeled with CFSE (Kang 2005). The cells were detached, added with 1.5 μM CFSE and allowed to stand for 15 min at 37° C., then washed twice and seeded in 6-well plates at 2×10^5. The cells were treated with the compound for 24 and 48 h, trypsinized and washed twice. Finally, the cells were resuspended in PBS and analyzed by flow cytometry. Green fluorescence emission from cells illuminated with excitation light of 488 nm was measured with a FACS Calibur (BD, Heidelberg, Germany) and analyzed using the CellQuest software.

[2] = system: C6 rat astrocytoma cells; assay: MTT / CV cell viability test; assay type: cell-based; conditions: C6 cells, different concentrations, 24 h; cell number also reduced by CV
Experimental: as §1, §2

[3] = system: L929 mouse fibrosarcoma cells; assay: MTT / CV cell viability test; assay type: cell-based; conditions: L929 cells, different concentrations, 24 h; cell number also reduced by CV
Experimental: as §1, §2

[4] = system: C6 cells; assay: ROS measurement by DHR fluorescence (flow cytometry); assay type: cell-based, rat; conditions: C6, 25 μg/ml, 24 h
Experimental: (§3) The cells grown in the 6-well plate were stained with 1 μM dihydrorhodamine 123 (DHR) 20 min before the treatment with the test compound. At the end of the cultivation period the cells were detached, washed and resuspended in PBS. Analysis of ROS release was performed with a FACSCalibur and analyzed using CellQuest Pro software (Kaludjerovic 2005).

[5] = system: B16 cells; assay: as above; assay type: cell-based, mouse; conditions: B16, 25 μg/ml, 24 h
Experimental: as §3

[6] = system: L929 cells; assay: as above; assay type: cell-based, mouse; conditions: L929, 25 μg/ml, 24 h
Experimental: as §3

[7] = system: diabetes; conditions: NOD mice with spontaneous or accelerated diabetes, or multiple low dose streptozotocin diabetes; cited from earlier work

O=C(O)CC1CC(c2ccccc2)=NO1 (racemic) [VGX-1027, (S,R)-3-phenyl-4,5-dihydro-5-isoxasole acetic acid, reference compound]
cell viability (MTT, mitochondrial respiration) [1]: did not affect the viability
cell viability (MTT, mitochondrial respiration) [2]: did not affect the viability
cell viability (MTT, mitochondrial respiration) [3]: did not affect the viability
intracellular production of ROS (DHR fluorescence) [4]: did not release ROS
intracellular production of ROS (DHR fluorescence) [5]: did not release ROS
intracellular production of ROS (DHR fluorescence) [6]: did not release ROS
diabetes progress [7]: significantly reduces diabetes progress

From patent US8207206B2, “(S,R)-3-phenyl-4,5 dihydro-5-isoxazole acetic acid-nitric oxide and use thereof as anti-cancer and antiviral agent” (OncoNOx APS, priority 2007, dated 2012)
